Results taken from patent publication US20130310352A1, “DEXAMETHASONE COMBINATION THERAPY” (priority 2010, published 2013).

Experiments:
Format in all cases: cell-based, human
[1] = system: MM cell lines ARP1, ARK, MM.1S, MM.1R and U266; experiment: MTS cell growth assay, all tested MM cell lines; conditions: 0 to 1 mM, 1 or 3 days
Procedure: (§1) MM cell lines ARP1, ARK, MM.1S, MM.1R and U266 were maintained in RPMI-1640 medium supplemented with 10% fetal bovine serum, 100 U/ml penicillin and 100 μg/ml streptomycin at 37° C. and 5% CO2 Primary MM cells and MM BMSCs were isolated from bone marrow aspirates of myeloma patients. PBMCs were obtained from healthy volunteers. The study was approved by the Institutional Review Board at The University of Texas M.D. Anderson Cancer Center. Anti-caspase-3, caspase-9, PARP, Bim, XIAP, cyclin D1, pp 70S6K (Thr389) and p27(Kip1) antibodies were purchased from Cell Signaling. Anti-bcl-2, Bc1-XL, Akt, pAkt (Thr 308), pAkt (Ser 473), p70S6K and β-actin antibodies were purchased from Santa Cruz. Compound A was dissolved in DMSO at 10 mM as stock solution. Dexamethasone and Propidium iodide (PI) were purchased from Sigma-Aldrich. Recombinant human IL6 was purchased from R&D Systems. FITC conjugated Annexin V was obtained from Invitrogen.
All experiments were performed in triplicate.
(A). Five MM cell lines ARP1, ARK, MM.1S, MM.1R and U266 were cultured in the presence of 0 to 1 mM compound A. Cells were harvested after 1 day or 3 days of treatment. Compound A induced MM cell apoptosis were measured by Annexin V staining as described in Materials and Methods. (B). Same MM cell lines were treated with 0 to 1 mM compound A for 1 or 3 days. Cell growths were assessed by MTS assay. (C). […]

[2] = system: ARP1 cells; experiment: Cell cycle analysis (PI, flow cytometry); conditions: ARP1, 1 μM, 24 hours
Procedure: MM cell lines ARP1, MM.1S and MM.1R were cultured with or without 1 μM compound A for 24 hours. Then, cells were harvested and permeabilized in 70% ethanol at 4° C. for overnight, and incubated with 50 μg/ml PI and 20 μg/ml RNase A for 15 min. DNA content was analyzed by flow cytometry and FlowJo software.
To study the mechanism of compound A induced MM cells growth inhibition and apoptosis, it was examined whether compound A treatment affects MM cell cycle.
(A). Representative histogram of ARP1 treated with 1 μM compound A for 1 day. (B). […] Cell cycle was tested as described.

[3] = system: caspase 3, caspase 9 and PARP in ARP1, MM.1S and MM.1R; experiment: Western blotting, caspases activation; conditions: 10 μM
Procedure: as §1
To elucidate compound A induced MM cell apoptosis, MM cell lines ARP1, MM.1S and MM.1R, treated with or without compound A for 24 hours, were assessed by Western blotting analysis.
(§2) (A). […] Compound A induced activation and cleavage of caspase-3, caspase-9 and PARP is shown. (B). Same MM cells treated with 10 μM compound A were lysed for western blotting. (C) RP1 cells were treated with 10 μM compound A for 1, 6, 12 and 24 hours.

[4] = system: PI3K-Akt-mTOR pathway in MM cells; experiment: Immunoblotting, PI3K-Akt-mTOR pathway
Procedure: as §1
To further analyze the signaling pathways that were affected by compound A exposure in MM cells, immunoblotting was extended to other cell signaling molecules. First, the inhibitory effect of compound A on PI3K-Akt-mTOR pathway in MM cells was tested. […] This is probably because of increased apoptotic cells after compound A treatment. […] Such findings indicate that compound A inhibits PI3K-Akt-mTOR pathways in MM cells.
as §2

[5] = system: BimS, XIAP and Bc1-XL in MM cells; experiment: Immunoblotting, apoptosis regulatory factors; conditions: 10 μM compound A
Procedure: as §1
Next, the expressions of apoptosis regulatory factors was tested. […] Bim is a pro-apoptotic factor belonging to Bc1-2 family (O'Connor L, Strasser A, O'Reilly L A, et al. Bim: a novel member of the Bc1-2 family that promotes apoptosis. EMBO J. 1998; 17 (2):384-395). Bim has three major isoforms generated by alternative splicing, BimEL, BimL and BimS. The shortest form BimS is the most cytotoxic isoform (Weber A, Paschen S A, Heger K, et al. BimS-induced apoptosis requires mitochondrial localization but not interaction with anti-apoptotic Bel-2 proteins. J. Cell Biol. 2007; 177 (4):625-636). Previous work has shown that the transcription of Bim is regulated by the forkhead transcription factor FKHR-L1, a downstream effector of PI3K (Dijkers P F, Medema R H, Lammers J W, Koenderman L, Coffer P J. Expression of the pro-apoptotic Bc1-2 family member Bim is regulated by the forkhead transcription factor FKHR-L1. Curr Biol. 2000; 10 (19):1201-1204). […] Thus, compound A induced MM cell apoptosis may be caused by up-regulation of cytotoxic BimS and down-regulation of anti-apoptotic XIAP and Bc1-XL.
(A). […]

[6] = 24 hours, ARP1, MM.1S and MM.1R

Nc1cc(C(F)(F)F)c(-c2cc(N3CCOCC3)nc(N3CCOCC3)n2)cn1 [compound A, 5-(2,6-di-morpholin-4-yl-pyrimidin-4-yl)-4-trifluoromethyl-pyridin-2-ylamine]
MM cells growth inhibition [1]: dose dependent growth inhibition | G1 phase cells [2]: increased | S phase cells [2]: decreased | caspase 3 cleavage [3, 6]: cleavage | caspase 9 cleavage [3, 6]: cleavage | PARP cleavage ([3]; all tested cell lines): detected | p-Akt at Ser473 and Thr308 ([4]; 10 μM compound A): down-regulated | total Akt levels ([4]; ARP1 and MM.1R cells, 10 μM): decreased | p-P70S6K levels ([4]; tested MM cell lines, 10 μM): decreased | total P70S6K expression ([4]; tested MM cell lines, 10 μM): remained constant | Bc1-XL expression [5]: down-regulated | BimS expression [5]: up-regulated | XIAP expression [5]: down-regulated
